Where two headings read alike, the source gives them in different places.
What was measured:
THP-1 = THP-1 host cell toxicity in the intramacrophage assay; assay type: cell-based
Method: (§1) These assays were carried out as previously described.[25],[36],[37]

L. major NMT (LmNMT) = biological target: T1, L. major NMT (LmNMT) (Leishmania major, UniProt Q4Q5S8); assay: LmNMT enzymatic assay (scintillation proximity, [3H]myristoyl-CoA, CAP5.5 peptide); assay type: biochemical
T1 construct: Recombinant LmNMT was expressed and purified as previously described; made in house

[1] = system: L. donovani promastigotes; assay: L. donovani promastigote compound sensitivity assay; assay type: cell-based, Leishmania donovani; details: read-out: promastigote EC50
Method: (§2) The clonal L. donovani cell line LdBOB (derived from MHOM/SD/62/1S-CL2D) was used in our in vitro compound screening and mechanism of action studies. Promastigotes were grown at 26 °C in modified M199 media with axenic amastigotes grown at 37 °C, as previously described.[35] All animal studies were carried using L. donovani (LV9; WHO designation: MHOM/ET/67/HU3).
as §1

[2] = system: L. donovani axenic amastigotes; assay: L. donovani axenic amastigote compound sensitivity assay; assay type: cell-based, Leishmania donovani; details: read-out: axenic amastigote EC50
Method: as §2, §1

[3] = system: L. donovani intracellular amastigotes; assay: L. donovani intramacrophage (intracellular amastigote) assay; assay type: cell-based, Leishmania donovani; details: read-out: intramacrophage EC50
Method: as §2, §1

human NMT (HsNMT) = biological target: T2, human NMT (HsNMT) (Homo sapiens, UniProt P30419); assay: counter-screen against human NMT; assay type: biochemical
T2 sequence (P30419 1-496): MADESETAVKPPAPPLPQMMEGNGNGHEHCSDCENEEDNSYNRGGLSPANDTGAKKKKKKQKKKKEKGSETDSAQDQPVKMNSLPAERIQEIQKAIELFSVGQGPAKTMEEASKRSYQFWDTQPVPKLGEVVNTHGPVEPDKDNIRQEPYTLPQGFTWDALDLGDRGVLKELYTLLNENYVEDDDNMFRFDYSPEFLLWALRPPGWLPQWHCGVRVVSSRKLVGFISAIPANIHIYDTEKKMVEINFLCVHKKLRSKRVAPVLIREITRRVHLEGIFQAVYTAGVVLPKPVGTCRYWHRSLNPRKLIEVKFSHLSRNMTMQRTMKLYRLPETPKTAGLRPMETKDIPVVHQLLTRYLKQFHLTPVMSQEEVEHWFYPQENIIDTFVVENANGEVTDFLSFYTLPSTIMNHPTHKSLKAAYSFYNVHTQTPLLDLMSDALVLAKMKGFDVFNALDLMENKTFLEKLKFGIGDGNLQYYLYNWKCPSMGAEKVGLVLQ

Trypanosoma brucei [4] = details: cited from earlier work
[5] = system: Trypanosoma brucei N-myristoyltransferase (TbNMT); details: cited from earlier work
Trypanosoma brucei [6] = system: Trypanosoma brucei; design: method as in PMID 20360736; details: cited from earlier work
[7] = system: L. donovani amastigotes (LV9); assay: mouse model of VL (BALB/c mice infected with L. donovani LV9)
Vero cells = assay: host Vero cell toxicity; assay type: cell-based; details: Chlorocebus sabaeus, read-out: EC50 against host Vero cells
[8] = system: intracellular amastigote form of T. cruzi; assay: T. cruzi intracellular amastigote assay; assay type: cell-based; details: Trypanosoma cruzi; read-out: EC50 against T. cruzi intracellular amastigotes
[9] = Homo sapiens, THP-1; read-out: THP-1 EC50
[10] = Leishmania donovani, L. donovani LdBOB
[11] = Leishmania donovani, L. donovani intracellular amastigotes
[12] = Homo sapiens, THP-1, read-out: THP-1 EC50

T1 sequence (Q4Q5S8 entry or part of it): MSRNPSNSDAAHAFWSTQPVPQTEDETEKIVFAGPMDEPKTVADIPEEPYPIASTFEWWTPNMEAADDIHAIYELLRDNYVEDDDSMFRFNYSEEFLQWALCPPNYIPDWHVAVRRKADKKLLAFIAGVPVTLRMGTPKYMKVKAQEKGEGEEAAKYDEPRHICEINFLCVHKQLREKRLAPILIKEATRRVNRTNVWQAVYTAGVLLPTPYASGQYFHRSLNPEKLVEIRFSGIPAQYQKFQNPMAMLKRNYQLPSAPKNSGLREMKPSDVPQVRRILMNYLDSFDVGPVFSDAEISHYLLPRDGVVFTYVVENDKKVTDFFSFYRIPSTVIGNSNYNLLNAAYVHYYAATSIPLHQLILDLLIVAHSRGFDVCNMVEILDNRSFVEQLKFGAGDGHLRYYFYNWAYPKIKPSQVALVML

Cc1nn(C)c(C)c1N[S+](=O)([O-])c1ccc(CCCC2CCNCC2)cc1 [compound 1]
EC50 (THP-1; read-out: THP-1 EC50): > 50 µM
IC50 (L. major NMT (LmNMT); 5 nM LmNMT, 0.5 μM CAP5.5, 0.125 μM myristoyl-CoA, read-out: LmNMT IC50): 400 nM
EC50 ([1]; L. donovani LdBOB): > 50 µM
EC50 ([2]; L. donovani LdBOB): > 50 µM
EC50 ([3]; L. donovani intracellular amastigotes): > 50 µM

Cc1nn(C)c(C)c1N(C)S(=O)(=O)c1c(Cl)cc(N2CCN(C(=O)c3ccn[nH]3)CC2)cc1Cl [compound 4, 4-(4-(1H-Pyrazole-5-carbonyl)piperazin-1-yl)-2,6-dichloro-N-methyl-N-(1,3,5-trimethyl-1H-pyrazol-4-yl)benzenesulfonamide]
EC50 (THP-1; [9]): > 50 µM
IC50 (human NMT (HsNMT)): 20 nM
IC50 (L. major NMT (LmNMT)): 30 nM
EC50 [1, 10]: 18.3 ± 0.1 µM
EC50 [2, 10]: 2.7 ± 0.08 µM
EC50 [3, 11]: > 50 µM

Cc1nn(C)c(C)c1NS(=O)(=O)c1c(Cl)cc(-c2ccnc(N3CCNCC3)c2)cc1Cl [DDD85646]
activity in the stage 2 HAT mouse model (in words) (Trypanosoma brucei [4]): not active
inhibition of TbNMT (in words) [5]: low nM inhibitor
efficacy in mouse models of stage 1 HAT (in words) (Trypanosoma brucei [6]): curative

Cc1nn(C)c(C)c1N(C)S(=O)(=O)c1c(Cl)cc(N2CCN(C(=O)c3ccc(N)cc3)CC2)cc1Cl [compound 8, 4-(4-(4-Aminobenzoyl)piperazin-1-yl)-2,6-dichloro-N-methyl-N-(1,3,5-trimethyl-1H-pyrazol-4-yl)benzenesulfonamide]
EC50 (THP-1; [9]): > 50 µM
IC50 (human NMT (HsNMT)): 8 nM
IC50 (L. major NMT (LmNMT)): 30 nM
EC50 [1, 10]: 8.2 ± 0.5 µM
EC50 [2, 10]: 5.1 ± 0.2 µM
EC50 [3, 11]: > 50 µM

Cc1nn(C)c(C)c1N(C)S(=O)(=O)c1c(Cl)cc(N2CCN(C(=O)Cc3ccccc3)CC2)cc1Cl [compound 9, 2,6-Dichloro-N-methyl-4-(4-(2-phenylacetyl)piperazin-1-yl)-N-(1,3,5-trimethyl-1H-pyrazol-4-yl)benzenesulfonamide]
EC50 (THP-1; [9]): > 50 µM
IC50 (human NMT (HsNMT)): 6300 nM
IC50 (L. major NMT (LmNMT)): 10000 nM
potency against LmNMT (in words) (L. major NMT (LmNMT)): poor activity
EC50 [1, 10]: 6.3 ± 0.3 µM
EC50 [2, 10]: 2.2 ± 0.03 µM
EC50 [3, 11]: 40.5 ± 13.4 µM

Cc1nn(C)c(C)c1N(C)S(=O)(=O)c1c(Cl)cc(N2CCN(C(=O)c3cccnc3)CC2)cc1Cl [compound 7, 2,6-Dichloro-N-methyl-4-(4-nicotinoylpiperazin-1-yl)-N-(1,3,5-trimethyl-1H-pyrazol-4-yl)benzenesulfonamide]
EC50 (THP-1; [9]): > 50 µM
IC50 (human NMT (HsNMT)): 500 nM
IC50 (L. major NMT (LmNMT)): 100 nM
EC50 [1, 10]: 5.8 ± 0.4 µM
EC50 [2, 10]: 0.3 ± 0.01 µM
EC50 [3, 11]: > 50 µM

Cc1nn(C)c(C)c1N(C)S(=O)(=O)c1c(Cl)cc(N2CCN(C(=O)c3cn[nH]c3)CC2)cc1Cl [compound 6, 4-(4-(1H-Pyrazole-4-carbonyl)piperazin-1-yl)-2,6-dichloro-N-methyl-N-(1,3,5-trimethyl-1H-pyrazol-4-yl)benzenesulfonamide]
EC50 (THP-1; [9]): > 50 µM
IC50 (human NMT (HsNMT)): 100 nM
IC50 (L. major NMT (LmNMT)): 60 nM
EC50 [1, 10]: > 50 µM
EC50 [2, 10]: > 50 µM
EC50 [3, 11]: > 50 µM

CCCCCCCCCCCCCCCCOP(=O)([O-])OCC[N+](C)(C)C [miltefosine]
reduction in liver parasite burden (LDU) versus vehicle ([7]; 30 mg kg^-1 orally q.d. for 5 days): 88%

Cc1nn(C)c(C)c1N(C)S(=O)(=O)c1c(Cl)cc(N2CCN(C(=O)c3cnn(C)c3)CC2)cc1Cl [compound 5, 2,6-Dichloro-N-methyl-4-(4-(1-methyl-1H-pyrazole-4-carbonyl)piperazin-1-yl)-N-(1,3,5-trimethyl-1H-pyrazol-4-yl)benzenesulfonamide]
EC50 (THP-1; [9]): > 50 µM
IC50 (human NMT (HsNMT)): 80 nM
IC50 (L. major NMT (LmNMT)): 80 nM
EC50 [1, 10]: 10 ± 0.4 µM
EC50 [2, 10]: 9.2 ± 0.4 µM
EC50 [3, 11]: > 50 µM

Cc1nn(C)c(C)c1N(C(F)F)S(=O)(=O)c1c(Cl)cc(CCCC2CCN(C)CC2)cc1Cl [compound 2]
efficacy in the stage 2 mouse model (in words) (Trypanosoma brucei [4]): moderate efficacy
EC50 (THP-1; [12]): 15.8 µM
reduction in liver parasite burden (LDU) versus vehicle ([7]; 50 mg kg^-1 orally b.i.d. for 5 days): 52%
EC50 (Vero cells): 5.1 µM
EC50 [8]: 470 nM
EC50 ([1]; Leishmania donovani): 0.04 ± 0.001 µM
EC50 ([2]; Leishmania donovani): 0.2 ± 0.006 µM
EC50 ([3]; Leishmania donovani): 2.4 ± 0.8 µM

O.O.O.O.O.O.O.O.O.O=C([O-])[C@@H]1[O][Sb](=[O])([O][Sb]2(=[O])[O][C@H]([C@H](O)CO)[C@H](O)[C@H](C(=O)[O-])[O]2)[O][C@H]([C@H](O)CO)[C@@H]1O.[Na+].[Na+].[Na+] (some centres unmarked) [sodium stibogluconate]
reduction in liver parasite burden (LDU) versus vehicle ([7]; 15 mg kg^-1 subcutaneous q.d. for 5 days): 52%

Cc1nn(C)c(C)c1N(C)S(=O)(=O)c1c(Cl)cc(CCCC2CCN(C)CC2)cc1Cl [compound 3]
EC50 (THP-1; [12]): > 50 µM
EC50 ([1]; Leishmania donovani): 0.07 ± 0.004 µM
EC50 ([2]; Leishmania donovani): 8.2 ± 0.6 µM
EC50 ([3]; Leishmania donovani): 7.1 ± 1.1 µM
